# Laboratory results as given in the supplement of paper PMC10307832.
# Assays:
# Assay in all cases: relative viability (nuclei count vs DMSO), 5 days (fraction); higher = more cells survive
# Cediranib + Tozasertib = compound: COc1cc2c(Oc3ccc4[nH]c(C)cc4c3F)ncnc2cc1OCCCN1CCCC1 [Cediranib] + Cc1cc(Nc2cc(N3CCN(C)CC3)nc(Sc3ccc(NC(=O)C4CC4)cc3)n2)n[nH]1 [Tozasertib] (partner 0.1 µM)
# In short: (§1)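 Values are medians from duplicate plates. Each reflects relative viability, defined as the nuclei count of treated wells over that of vehicle wells. Lung cancer cell lines in 1536-well plates were pin-tool dosed one day after seeding with one drug alone or with a fixed anchor-drug dose plus five library-drug doses (not always all listed) in √10 steps, then fixed, stained and imaged at 4× after 5 days.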
# [1] = compound: O=C(C[C@H]1NCCC[C@@H]1O)Cn1cnc2cc(Br)c(Cl)cc2c1=O (racemic) [Halofuginone] + N=C(N)NC(=N)NCCc1ccccc1 [Phenformin] (partner 250 µM)
# In short: as §1
# Decitabine + Luminespib = compound: Nc1ncn([C@H]2C[C@H](O)[C@@H](CO)O2)c(=O)n1 [Decitabine] + CCNC(=O)c1noc(-c2cc(C(C)C)c(O)cc2O)c1-c1ccc(CN2CCOCC2)cc1 [Luminespib] (partner 0.01 µM)
# In short: as §1
# Halofuginone + Lapatinib = compound: O=C(C[C@H]1NCCC[C@@H]1O)Cn1cnc2cc(Br)c(Cl)cc2c1=O (racemic) [Halofuginone] + CS(=O)(=O)CCNCc1ccc(-c2ccc3ncnc(Nc4ccc(OCc5cccc(F)c5)c(Cl)c4)c3c2)o1 [Lapatinib] (partner 2 µM)
# In short: as §1
cell line,measurement,setting,value
HCC-15,relative viability,Cediranib + Tozasertib; first compound 0.04 µM,0.507
same,relative viability,Cediranib + Tozasertib; first compound 0.4 µM,0.391
same,relative viability,Cediranib + Tozasertib; first compound 1.265 µM,0.36
same,relative viability,Cediranib + Tozasertib; first compound 4 µM,0.358
same,relative viability,[1]; first compound 0.001 µM,0.471
same,relative viability,[1]; first compound 0.003162 µM,0.534
same,relative viability,[1]; first compound 0.01 µM,0.46
same,relative viability,[1]; first compound 0.03162 µM,0.467
same,relative viability,[1]; first compound 0.1 µM,0.429
same,relative viability,Decitabine + Luminespib; first compound 0.04 µM,0.301
same,relative viability,Decitabine + Luminespib; first compound 0.1265 µM,0.38
same,relative viability,Decitabine + Luminespib; first compound 0.4 µM,0.267
same,relative viability,Decitabine + Luminespib; first compound 1.265 µM,0.191
same,relative viability,Decitabine + Luminespib; first compound 4 µM,0.195
same,relative viability,Halofuginone + Lapatinib; first compound 0.001 µM,0.88
same,relative viability,Halofuginone + Lapatinib; first compound 0.003162 µM,0.887
same,relative viability,Halofuginone + Lapatinib; first compound 0.01 µM,0.829
same,relative viability,Halofuginone + Lapatinib; first compound 0.03162 µM,0.863
same,relative viability,Halofuginone + Lapatinib; first compound 0.1 µM,0.785
HCC-44,relative viability,Cediranib + Tozasertib; first compound 0.4 µM,0.893
same,relative viability,Cediranib + Tozasertib; first compound 1.265 µM,1.05
same,relative viability,Cediranib + Tozasertib; first compound 4 µM,0.831
same,relative viability,[1]; first compound 0.001 µM,0.23
same,relative viability,[1]; first compound 0.003162 µM,0.222
same,relative viability,[1]; first compound 0.01 µM,0.196
same,relative viability,[1]; first compound 0.03162 µM,0.178
same,relative viability,[1]; first compound 0.1 µM,0.13
same,relative viability,Decitabine + Luminespib; first compound 0.1265 µM,0.848
same,relative viability,Decitabine + Luminespib; first compound 0.4 µM,0.52
same,relative viability,Decitabine + Luminespib; first compound 1.265 µM,0.618
same,relative viability,Decitabine + Luminespib; first compound 4 µM,0.471
same,relative viability,Halofuginone + Lapatinib; first compound 0.001 µM,1.02
same,relative viability,Halofuginone + Lapatinib; first compound 0.003162 µM,1.01
same,relative viability,Halofuginone + Lapatinib; first compound 0.01 µM,0.955
same,relative viability,Halofuginone + Lapatinib; first compound 0.03162 µM,0.997
same,relative viability,Halofuginone + Lapatinib; first compound 0.1 µM,0.808
HCC-78,relative viability,Cediranib + Tozasertib; first compound 0.04 µM,0.448
same,relative viability,Cediranib + Tozasertib; first compound 0.1265 µM,0.474
same,relative viability,Cediranib + Tozasertib; first compound 0.4 µM,0.512
same,relative viability,Cediranib + Tozasertib; first compound 1.265 µM,0.54
same,relative viability,Cediranib + Tozasertib; first compound 4 µM,0.441
same,relative viability,[1]; first compound 0.001 µM,0.7
same,relative viability,[1]; first compound 0.003162 µM,0.667
same,relative viability,[1]; first compound 0.01 µM,0.697
same,relative viability,[1]; first compound 0.03162 µM,0.739
same,relative viability,[1]; first compound 0.1 µM,0.623
same,relative viability,Halofuginone + Lapatinib; first compound 0.001 µM,0.931
same,relative viability,Halofuginone + Lapatinib; first compound 0.003162 µM,0.698
same,relative viability,Halofuginone + Lapatinib; first compound 0.01 µM,0.707
same,relative viability,Halofuginone + Lapatinib; first compound 0.03162 µM,0.903
same,relative viability,Halofuginone + Lapatinib; first compound 0.1 µM,0.137
HCC-366,relative viability,Cediranib + Tozasertib; first compound 0.04 µM,0.114
same,relative viability,Cediranib + Tozasertib; first compound 0.1265 µM,0.0898
same,relative viability,Cediranib + Tozasertib; first compound 0.4 µM,0.125
same,relative viability,Cediranib + Tozasertib; first compound 1.265 µM,0.136
same,relative viability,Cediranib + Tozasertib; first compound 4 µM,0.147
same,relative viability,[1]; first compound 0.001 µM,0.723
same,relative viability,[1]; first compound 0.003162 µM,0.633
same,relative viability,[1]; first compound 0.01 µM,0.646
same,relative viability,[1]; first compound 0.03162 µM,0.581
same,relative viability,[1]; first compound 0.1 µM,0.458
same,relative viability,Halofuginone + Lapatinib; first compound 0.001 µM,1.05
same,relative viability,Halofuginone + Lapatinib; first compound 0.003162 µM,1.17
same,relative viability,Halofuginone + Lapatinib; first compound 0.01 µM,0.979
same,relative viability,Halofuginone + Lapatinib; first compound 0.03162 µM,1.08
same,relative viability,Halofuginone + Lapatinib; first compound 0.1 µM,0.542
HCC-827,relative viability,Cediranib + Tozasertib; first compound 0.04 µM,0.529
same,relative viability,Cediranib + Tozasertib; first compound 0.4 µM,0.407
same,relative viability,Cediranib + Tozasertib; first compound 1.265 µM,0.414
same,relative viability,Cediranib + Tozasertib; first compound 4 µM,0.351
same,relative viability,[1]; first compound 0.001 µM,0.407
same,relative viability,[1]; first compound 0.003162 µM,0.426
same,relative viability,[1]; first compound 0.01 µM,0.373
same,relative viability,[1]; first compound 0.03162 µM,0.434
same,relative viability,[1]; first compound 0.1 µM,0.38
same,relative viability,Decitabine + Luminespib; first compound 0.04 µM,0.239
same,relative viability,Decitabine + Luminespib; first compound 0.1265 µM,0.31
same,relative viability,Decitabine + Luminespib; first compound 0.4 µM,0.246
same,relative viability,Decitabine + Luminespib; first compound 1.265 µM,0.301
same,relative viability,Decitabine + Luminespib; first compound 4 µM,0.316
same,relative viability,Halofuginone + Lapatinib; first compound 0.001 µM,0.192
same,relative viability,Halofuginone + Lapatinib; first compound 0.003162 µM,0.189
same,relative viability,Halofuginone + Lapatinib; first compound 0.01 µM,0.236
same,relative viability,Halofuginone + Lapatinib; first compound 0.03162 µM,0.233
same,relative viability,Halofuginone + Lapatinib; first compound 0.1 µM,0.202
HOP-62,relative viability,Cediranib + Tozasertib; first compound 0.04 µM,0.366
same,relative viability,Cediranib + Tozasertib; first compound 0.1265 µM,0.457
same,relative viability,Cediranib + Tozasertib; first compound 0.4 µM,0.388
same,relative viability,Cediranib + Tozasertib; first compound 1.265 µM,0.379
same,relative viability,Cediranib + Tozasertib; first compound 4 µM,0.352
same,relative viability,[1]; first compound 0.001 µM,0.663
same,relative viability,[1]; first compound 0.003162 µM,0.707
same,relative viability,[1]; first compound 0.01 µM,0.676
same,relative viability,[1]; first compound 0.03162 µM,0.634
same,relative viability,[1]; first compound 0.1 µM,0.603
same,relative viability,Decitabine + Luminespib; first compound 0.04 µM,0.488
same,relative viability,Decitabine + Luminespib; first compound 0.1265 µM,0.342
same,relative viability,Decitabine + Luminespib; first compound 0.4 µM,0.21
same,relative viability,Decitabine + Luminespib; first compound 1.265 µM,0.187
same,relative viability,Decitabine + Luminespib; first compound 4 µM,0.209
same,relative viability,Halofuginone + Lapatinib; first compound 0.001 µM,0.983
same,relative viability,Halofuginone + Lapatinib; first compound 0.003162 µM,1.09
same,relative viability,Halofuginone + Lapatinib; first compound 0.01 µM,0.936
same,relative viability,Halofuginone + Lapatinib; first compound 0.03162 µM,0.791
same,relative viability,Halofuginone + Lapatinib; first compound 0.1 µM,0.948
IA-LM,relative viability,Halofuginone + Lapatinib; first compound 0.001 µM,0.85
same,relative viability,Halofuginone + Lapatinib; first compound 0.003162 µM,0.781
same,relative viability,Halofuginone + Lapatinib; first compound 0.01 µM,0.579
same,relative viability,Halofuginone + Lapatinib; first compound 0.03162 µM,0.518
same,relative viability,Halofuginone + Lapatinib; first compound 0.1 µM,0.0907
LC-2-ad,relative viability,Cediranib + Tozasertib; first compound 0.04 µM,0.496
same,relative viability,Cediranib + Tozasertib; first compound 0.1265 µM,0.373
same,relative viability,Cediranib + Tozasertib; first compound 0.4 µM,0.456
same,relative viability,Cediranib + Tozasertib; first compound 1.265 µM,0.507
same,relative viability,Cediranib + Tozasertib; first compound 4 µM,0.371
same,relative viability,[1]; first compound 0.001 µM,0.694
same,relative viability,[1]; first compound 0.003162 µM,0.581
same,relative viability,[1]; first compound 0.01 µM,0.536
same,relative viability,[1]; first compound 0.03162 µM,0.677
same,relative viability,[1]; first compound 0.1 µM,0.466
same,relative viability,Decitabine + Luminespib; first compound 0.04 µM,0.839
same,relative viability,Decitabine + Luminespib; first compound 0.1265 µM,0.958
same,relative viability,Decitabine + Luminespib; first compound 0.4 µM,0.782
same,relative viability,Decitabine + Luminespib; first compound 1.265 µM,0.492
same,relative viability,Decitabine + Luminespib; first compound 4 µM,0.558
same,relative viability,Halofuginone + Lapatinib; first compound 0.001 µM,0.98
same,relative viability,Halofuginone + Lapatinib; first compound 0.003162 µM,1.02
same,relative viability,Halofuginone + Lapatinib; first compound 0.01 µM,0.93
same,relative viability,Halofuginone + Lapatinib; first compound 0.03162 µM,0.874
same,relative viability,Halofuginone + Lapatinib; first compound 0.1 µM,0.726
